{"source": "patent US12391683B2", "about": "“Therapeutic compounds and methods” (Actio Biosciences, Inc., priority 2022, dated 2025)", "key": {"Hepatocytes [1]": {"tested_on": "Hepatocytes", "experiment": "Hepatocytes predicted clearance, rat"}, "Hepatocytes [2]": {"tested_on": "Hepatocytes", "experiment": "Hepatocytes predicted clearance, human"}, "TRPC5 channels": {"molecular_target": "T1, TRPC5 channels (Homo sapiens, UniProt Q9UL62)", "T1 construct": "expressed in transfected cells; host or cells: HEK293", "T1 sequence (Q9UL62 1-973)": "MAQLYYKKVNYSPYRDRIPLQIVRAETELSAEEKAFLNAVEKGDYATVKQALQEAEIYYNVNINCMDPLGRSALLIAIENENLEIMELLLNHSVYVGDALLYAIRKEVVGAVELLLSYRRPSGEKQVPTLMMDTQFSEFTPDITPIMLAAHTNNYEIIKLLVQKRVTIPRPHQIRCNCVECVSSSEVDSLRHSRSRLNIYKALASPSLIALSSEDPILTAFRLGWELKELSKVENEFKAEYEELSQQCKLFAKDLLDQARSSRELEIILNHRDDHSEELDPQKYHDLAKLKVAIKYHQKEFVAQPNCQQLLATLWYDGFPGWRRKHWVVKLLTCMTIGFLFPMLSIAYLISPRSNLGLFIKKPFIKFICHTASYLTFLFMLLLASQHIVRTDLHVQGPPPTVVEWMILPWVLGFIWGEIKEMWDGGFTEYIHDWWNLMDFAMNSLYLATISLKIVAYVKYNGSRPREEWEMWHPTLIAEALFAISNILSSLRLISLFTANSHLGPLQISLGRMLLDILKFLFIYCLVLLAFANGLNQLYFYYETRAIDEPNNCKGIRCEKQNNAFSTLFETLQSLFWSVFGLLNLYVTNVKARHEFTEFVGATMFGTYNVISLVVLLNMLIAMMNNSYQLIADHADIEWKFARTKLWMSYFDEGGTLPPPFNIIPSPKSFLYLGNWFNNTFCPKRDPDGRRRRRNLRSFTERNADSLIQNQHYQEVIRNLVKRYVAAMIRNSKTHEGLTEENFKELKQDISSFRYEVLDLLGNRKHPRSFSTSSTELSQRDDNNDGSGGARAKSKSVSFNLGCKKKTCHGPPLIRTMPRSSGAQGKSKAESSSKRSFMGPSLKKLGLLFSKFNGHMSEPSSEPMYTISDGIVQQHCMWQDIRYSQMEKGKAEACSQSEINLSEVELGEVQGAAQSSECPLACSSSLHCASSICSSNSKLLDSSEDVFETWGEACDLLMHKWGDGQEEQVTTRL", "experiment": "TRP Family FLIPR Assay, TRPC5", "assay_type": "cell-based", "conditions": "HEK293 cells", "description": "(§1) The compound of Example 5 was tested for selectivity against a panel of Human TRP family ion channels in a TRP Family FLIPR Assay as described below. • 1. TRPC3 channels (human TRPC3 variant 1 gene, expressed in HEK293 cells). • 2. TRPC4 channels (human TRPC4 gene, expressed in HEK293 cells). • 3. TRPC5 channels (human TRPC5 gene, expressed in HEK293 cells). • 4. TRPC6 channels (human TRPC6 gene, expressed in HEK293 cells). • 5. TRPM2 channels (human TRPM2 gene, transiently expressed in HEK293 cells). • 6. TRPM3 channels (human TRPM3 gene, transiently expressed in HEK293 cells). • 7. TRPM4 channels (human TRPM4 gene, expressed in CHO cells). • 8. […]\n(§2) Data acquisition was performed via the FLIPR Control software supplied with the FLIPR System (MDS-AT) and data was analyzed using Microsoft Excel (Microsoft Corp., Redmond, WA) or GraphPad Prism. […]\n(§3) [formula] where Base is the response at low concentrations of test article, Max is the maximum response at high concentrations, xhalf the EC50, or IC50, the concentration of test article producing either half-maximal activation or inhibition, and rate is the Hill coefficient. […] No assumptions about the fit parameters was made; the fit parameters were determined by the algorithm.\n(§4) The effect of each test article was evaluated at eight (8) concentrations: 0.003, 0.01, 0.03, 0.1, 0.3, 1, 3 and 10 μM, n≤4 wells/concentration). […]"}, "TRPM3 channels": {"molecular_target": "T2, TRPM3 channels (Homo sapiens, UniProt Q9HCF6)", "T2 construct": "expressed in transfected cells; host or cells: HEK293 (transient)", "T2 sequence (Q9HCF6 whole entry)": "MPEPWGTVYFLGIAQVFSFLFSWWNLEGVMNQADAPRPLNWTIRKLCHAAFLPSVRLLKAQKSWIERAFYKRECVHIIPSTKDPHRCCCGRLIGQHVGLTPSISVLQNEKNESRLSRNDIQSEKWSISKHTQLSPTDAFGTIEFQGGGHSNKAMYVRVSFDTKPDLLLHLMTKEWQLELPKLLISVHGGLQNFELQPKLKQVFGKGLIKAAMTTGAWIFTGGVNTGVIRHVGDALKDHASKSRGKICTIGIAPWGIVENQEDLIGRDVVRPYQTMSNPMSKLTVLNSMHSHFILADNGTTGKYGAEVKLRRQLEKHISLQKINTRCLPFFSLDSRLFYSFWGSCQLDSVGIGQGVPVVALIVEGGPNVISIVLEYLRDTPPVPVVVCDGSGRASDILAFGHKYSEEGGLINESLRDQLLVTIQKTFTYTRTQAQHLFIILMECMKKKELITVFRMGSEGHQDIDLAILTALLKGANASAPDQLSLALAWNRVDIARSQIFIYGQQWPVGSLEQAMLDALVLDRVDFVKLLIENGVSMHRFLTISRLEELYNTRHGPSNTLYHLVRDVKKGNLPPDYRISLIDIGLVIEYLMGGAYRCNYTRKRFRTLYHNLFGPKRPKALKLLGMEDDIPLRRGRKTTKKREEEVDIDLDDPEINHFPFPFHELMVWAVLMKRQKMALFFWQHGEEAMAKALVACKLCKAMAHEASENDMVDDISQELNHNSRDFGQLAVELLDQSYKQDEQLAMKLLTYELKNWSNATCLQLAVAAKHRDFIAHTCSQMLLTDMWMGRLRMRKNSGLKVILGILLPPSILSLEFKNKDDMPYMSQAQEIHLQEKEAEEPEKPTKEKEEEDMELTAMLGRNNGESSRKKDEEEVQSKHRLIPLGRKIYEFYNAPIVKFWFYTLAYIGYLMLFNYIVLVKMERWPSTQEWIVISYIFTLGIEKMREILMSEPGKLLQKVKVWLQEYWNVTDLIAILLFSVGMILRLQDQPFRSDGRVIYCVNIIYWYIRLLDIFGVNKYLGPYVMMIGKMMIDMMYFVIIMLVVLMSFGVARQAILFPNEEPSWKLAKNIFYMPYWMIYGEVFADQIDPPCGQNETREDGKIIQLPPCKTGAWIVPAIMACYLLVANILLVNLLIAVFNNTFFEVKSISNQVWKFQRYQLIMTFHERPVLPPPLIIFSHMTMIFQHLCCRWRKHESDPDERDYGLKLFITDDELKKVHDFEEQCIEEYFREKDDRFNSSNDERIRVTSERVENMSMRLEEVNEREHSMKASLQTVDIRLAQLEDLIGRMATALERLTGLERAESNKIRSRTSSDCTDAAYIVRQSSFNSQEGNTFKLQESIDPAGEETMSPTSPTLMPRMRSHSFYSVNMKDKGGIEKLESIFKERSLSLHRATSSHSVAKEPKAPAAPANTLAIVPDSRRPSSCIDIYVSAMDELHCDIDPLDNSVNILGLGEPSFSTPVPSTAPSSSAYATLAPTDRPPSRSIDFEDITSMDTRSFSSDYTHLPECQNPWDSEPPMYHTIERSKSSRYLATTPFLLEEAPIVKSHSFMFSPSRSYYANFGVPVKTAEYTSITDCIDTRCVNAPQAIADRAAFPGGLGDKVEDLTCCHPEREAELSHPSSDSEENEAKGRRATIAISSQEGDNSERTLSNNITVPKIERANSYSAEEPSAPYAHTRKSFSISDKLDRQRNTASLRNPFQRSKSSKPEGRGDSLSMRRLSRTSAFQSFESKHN", "experiment": "TRP Family FLIPR Assay, TRPM3", "assay_type": "cell-based", "conditions": "HEK293 cells (transient)", "description": "as §1, §2, §3, §4"}}, "note": "pEC50, pIC50: −log10 of the molar value."}
{"smiles": "CC(C)(O)c1cnc(N2C[C@@]3(CC[C@@H](F)[C@](C)(Cn4cnc5ccc(C#N)cc54)C3)OC2=O)cn1", "note": "(single isomer, unassigned) [Example 5]", "values": [{"measurement": "Hepatocytes predicted clearance in rat", "setting": "Hepatocytes [1]", "result": 0.46, "unit": "L/h/kg"}, {"measurement": "Hepatocytes predicted clearance in human", "setting": "Hepatocytes [2]", "result": "< 0.01", "unit": "L/h/kg"}, {"measurement": "pEC50", "setting": "TRPC5 channels; agonist mode, vs EMAX of (−)-Englerin A 30 μM, read-out: EC50 hTRPC5", "result": "< 5.00"}, {"measurement": "pIC50", "setting": "TRPC5 channels; antagonist mode, activated with 0.5 μM (−)-Englerin A, 0.003-10 μM, read-out: IC50 hTRPC5", "result": "< 5.00"}, {"measurement": "pEC50", "setting": "TRPM3 channels; agonist mode, vs EMAX of pregnenolone 100 μM, read-out: EC50 hTRPM3", "result": "< 5.00"}, {"measurement": "pIC50", "setting": "TRPM3 channels; antagonist mode, activated with pregnenolone 30 μM, 0.003-10 μM, read-out: IC50 hTRPM3", "result": "< 5.00"}]}
